The values that follow come from patent US7030093B2, “Antibiotic coating for porous bodies and method for its production as well as its use” (HERAEUS Kulzer GmbH & Co. KG, priority 2002, dated 2006).

This data set is described as follows: Release of the antibiotic from the salts in an aqueous environment (finding in words). The class given is physicochemical. Particulars: method not given.
Take amikacin myristate: the “Release of the underlying antibiotic in an aqueous environment” value (from here on “Release of the underlying antibiotic”) is given as “in a delayed fashion”.

As for amikacin dodecyl sulfate, the “Release of the underlying antibiotic” value is “in a delayed fashion”.

With Amikacin laurate, the “Release of the underlying antibiotic” value is on record as “in a delayed fashion”.
